Data: patent US8278345B2, “Inhibitors of glutaminyl cyclase” (Probiodrug AG, priority 2006, dated 2012)

Biological target: hQC (Homo sapiens, UniProt Q16769)
Experiment: Inhibitor assay for glutaminyl cyclase activity (fluorometric, H-Gln-βNA / H-Gln-AMC)
Format: biochemical
Conditions: compound from preparative synthesis, purified; read-out: IC50 hQC
Procedure: All measurements were performed with a BioAssay Reader HTS-7000Plus for microplates (Perkin Elmer) at 30° C. QC activity was evaluated fluorometrically using H-Gln-βNA. The samples consisted of 0.2 mM fluorogenic substrate, 0.25 U pyroglutamyl aminopeptidase (Unizyme, Hørsholm, Denmark) in 0.2 M Tris/HCl, pH 8.0 containing 20 mM EDTA and an appropriately diluted aliquot of QC in a final volume of 250 μl. Excitation/emission wavelengths were 320/410 nm. The assay reactions were initiated by addition of glutaminyl cyclase. QC activity was determined from a standard curve of β-naphthylamine under assay conditions. One unit is defined as the amount of QC catalyzing the formation of 1 μmol pGlu-βNA from H-Gln-βNA per minute under the described conditions.
In a second fluorometric assay, QC activity was determined using H-Gln-AMC as substrate. Reactions were carried out at 30° C. utilizing the NOVOStar reader for microplates (BMG labtechnologies). The samples consisted of varying concentrations of the fluorogenic substrate, 0.1 U pyroglutamyl aminopeptidase (Qiagen) in 0.05 M Tris/HCl, pH 8.0 containing 5 mM EDTA and an appropriately diluted aliquot of QC in a final volume of 250 μl. Excitation/emission wavelengths were 380/460 nm. The assay reactions were initiated by addition of glutaminyl cyclase. QC activity was determined from a standard curve of 7-amino-4-methylcoumarin under assay conditions. The kinetic data were evaluated using GraFit sofware.
For inhibitor testing, the sample composition was the same as described above, except of the putative inhibitory compound added. For a rapid test of QC-inhibition, samples contained 4 mM of the respective inhibitor and a substrate concentration at 1 KM. For detailed investigations of the inhibition and determination of Ki-values, influence of the inhibitor on the auxiliary enzymes was investigated first. In every case, there was no influence on either enzyme detected, thus enabling the reliable determination of the QC inhibition. The inhibitory constant was evaluated by fitting the set of progress curves to the general equation for competitive inhibition using GraFit software.

hQC, sequence (Q16769 29-361): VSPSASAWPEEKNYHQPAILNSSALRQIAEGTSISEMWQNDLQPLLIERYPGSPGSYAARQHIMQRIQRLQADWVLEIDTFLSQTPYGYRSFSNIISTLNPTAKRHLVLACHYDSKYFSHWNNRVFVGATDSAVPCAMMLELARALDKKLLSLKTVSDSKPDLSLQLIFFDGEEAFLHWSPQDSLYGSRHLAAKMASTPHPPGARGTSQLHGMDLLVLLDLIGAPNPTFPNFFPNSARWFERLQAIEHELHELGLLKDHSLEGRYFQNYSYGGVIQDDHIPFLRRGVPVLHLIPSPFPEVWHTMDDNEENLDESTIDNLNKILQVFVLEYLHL

IC50 [nM] | Structure (SMILES)
152 | Cc1ccc(C2C(c3ccc(O)cc3)=C(O)C(=O)N2CCCn2ccnc2)cc1 (stereo not drawn) [Compound 148, 3-Hydroxy-4-(4-hydroxy-phenyl)-1-(3-imidazol-1-yl-propyl)-5-p-tolyl-1,5-dihydro-pyrrol-2-one]
1310 | CCCCCC1=C(O)C(=O)N(CCCn2ccnc2)C1c1ccco1 (stereo not drawn) [Compound 213, 5-Furan-2-yl-3-hydroxy-1-(3-imidazol-1-yl-propyl)-4-pentyl-1,5-dihydro-pyrrol-2-one]
740 | O=C1C(O)=C(c2ccccc2)C(c2ccccc2F)N1CCCn1ccnc1 (stereo not drawn) [Compound 110, 5-(2-Fluoro-phenyl)-3-hydroxy-1-(3-imidazol-1-yl-propyl)-4-phenyl-1,5-dihydro-pyrrol-2-one]

Same assay, conditions: read-out: IC50

Structure (SMILES) | IC50 [nM]
O=C1C(O)=C(c2c[nH]c3ccccc23)C(c2ccccn2)N1CCCn1ccnc1 (stereo not drawn) [Compound 135, 3-Hydroxy-1-(3-imidazol-1-yl-propyl)-4-(1H-indol-3-yl)-5-pyridin-2-yl-1,5-dihydro-pyrrol-2-one] | 40
CCCCCC1=C(O)C(=O)N(CCCn2ccnc2)C1c1ccc(C)c(C)c1 (stereo not drawn) [Compound 195, 5-(3,4-Dimethyl-phenyl)-3-hydroxy-1-(3-imidazol-1-yl-propyl)-4-pentyl-1,5-dihydro-pyrrol-2-one] | 40
Cc1ccc(C2C(c3ccc(O)cc3)=C(O)C(=O)N2CCCn2ccnc2)cc1 (stereo not drawn) [Compound 148, 3-Hydroxy-4-(4-hydroxy-phenyl)-1-(3-imidazol-1-yl-propyl)-5-p-tolyl-1,5-dihydro-pyrrol-2-one] | 40
O=C1C(O)=C(c2ccccc2)C(C(O)CO)N1CCCn1ccnc1 (stereo not drawn) [Compound 82, 5-(1,2-Dihydroxy-ethyl)-3-hydroxy-1-(3-imidazol-1-yl-propyl)-4-phenyl-1,5-dihydro-pyrrol-2-one] | 3100
O=C1C(O)=C(c2c[nH]c3ccccc23)C(c2ccccc2O)N1CCCn1ccnc1 (stereo not drawn) [Compound 122, 3-Hydroxy-5-(2-hydroxy-phenyl)-1-(3-imidazol-1-yl-propyl)-4-(1H-indol-3-yl)-1,5-dihydro-pyrrol-2-one] | 40
O=C1C(O)=C(c2c[nH]c3ccccc23)C(c2cccs2)N1CCCn1ccnc1 (stereo not drawn) [Compound 137, 3-Hydroxy-1-(3-imidazol-1-yl-propyl)-4-(1H-indol-3-yl)-5-thiophen-2-yl-1,5-dihydro-pyrrol-2-one] | 400
CC1=C(O)C(=O)N(CCCn2ccnc2)C1c1cc(Cl)cc(Cl)c1O (stereo not drawn) [Compound 20, 5-(3,5-Dichloro-2-hydroxy-phenyl)-3-hydroxy-1-(3-imidazol-1-yl-propyl)-4-methyl-1,5-dihydro-pyrrol-2-one] | 400
CCC(C)C1C(c2ccccc2)=C(O)C(=O)N1CCCn1ccnc1 (stereo not drawn) [Compound 79, 5-sec-Butyl-3-hydroxy-1-(3-imidazol-1-yl-propyl)-4-phenyl-1,5-dihydro-pyrrol-2-one] | 400
CCCCCC1=C(O)C(=O)N(CCCn2ccnc2)C1c1ccc(C)cc1 (stereo not drawn) [Compound 184, 3-Hydroxy-1-(3-imidazol-1-yl-propyl)-4-pentyl-5-p-tolyl-1,5-dihydro-pyrrol-2-one] | 40
O=C1C(O)=C(c2c[nH]c3ccccc23)C(CO)N1CCCn1ccnc1 (stereo not drawn) [Compound 138, 3-Hydroxy-5-hydroxymethyl-1-(3-imidazol-1-yl-propyl)-4-(1H-indol-3-yl)-1,5-dihydro-pyrrol-2-one] | 40
CC(C)C1=C(O)C(=O)N(CCCn2ccnc2)C1c1ccccc1 (stereo not drawn) [Compound 65, 3-Hydroxy-1-(3-imidazol-1-yl-propyl)-4-isopropyl-5-phenyl-1,5-dihydro-pyrrol-2-one] | 3100
CCC1=C(O)C(=O)N(CCCn2ccnc2)C1c1ccc(O)cc1 (stereo not drawn) [Compound 251, 4-Ethyl-3-hydroxy-5-(4-hydroxy-phenyl)-1-(3-imidazol-1-yl-propyl)-1,5-dihydro-pyrrol-2-one] | 400
CC(C)C1=C(O)C(=O)N(CCCn2ccnc2)C1c1ccccc1O (stereo not drawn) [Compound 60, 3-Hydroxy-5-(2-hydroxy-phenyl)-1-(3-imidazol-1-yl-propyl)-4-isopropyl-1,5-dihydro-pyrrol-2-one] | 9400
CCCCCC1=C(O)C(=O)N(CCCn2ccnc2)C1c1ccco1 (stereo not drawn) [Compound 213, 5-Furan-2-yl-3-hydroxy-1-(3-imidazol-1-yl-propyl)-4-pentyl-1,5-dihydro-pyrrol-2-one] | 40
CCCCCC1=C(O)C(=O)N(CCCn2ccnc2)C1CCC (stereo not drawn) [Compound 187, 3-Hydroxy-1-(3-imidazol-1-yl-propyl)-4-pentyl-5-propyl-1,5-dihydro-pyrrol-2-one] | 40
O=C1C(O)=C(c2ccc(O)cc2)C(Cc2ccccc2)N1CCCn1ccnc1 (stereo not drawn) [Compound 169, 5-Benzyl-3-hydroxy-4-(4-hydroxy-phenyl)-1-(3-imidazol-1-yl-propyl)-1,5-dihydro-pyrrol-2-one] | 40
CC1=C(O)C(=O)N(CCCn2ccnc2)C1c1ccc2[nH]ccc2c1 (stereo not drawn) [Compound 26, 3-Hydroxy-1-(3-imidazol-1-yl-propyl)-5-(1H-indol-5-yl)-4-methyl-1,5-dihydro-pyrrol-2-one] | 40
O=C1C(O)=C(c2ccccc2)C(c2ccccc2F)N1CCCn1ccnc1 (stereo not drawn) [Compound 110, 5-(2-Fluoro-phenyl)-3-hydroxy-1-(3-imidazol-1-yl-propyl)-4-phenyl-1,5-dihydro-pyrrol-2-one] | 40
O=C1C(O)=C(c2ccccc2)C(c2ccccc2)N1CCCn1ccnc1 (stereo not drawn) [Compound 92, 3-Hydroxy-1-(3-imidazol-1-yl-propyl)-4,5-diphenyl-1,5-dihydro-pyrrol-2-one] | 3100
CCC1=C(O)C(=O)N(CCCn2ccnc2)C1Cc1ccccc1 (stereo not drawn) [Compound 242, 5-Benzyl-4-ethyl-3-hydroxy-1-(3-imidazol-1-yl-propyl)-1,5-dihydro-pyrrol-2-one] | 2200
CCC1=C(O)C(=O)N(CCCn2ccnc2)C1C1=CCCCC1 (stereo not drawn) [Compound 238, 5-Cyclohex-1-enyl-4-ethyl-3-hydroxy-1-(3-imidazol-1-yl-propyl)-1,5-dihydro-pyrrol-2-one] | 40
Cc1ccc2occ(C3C(c4ccccc4)=C(O)C(=O)N3c3ccc4[nH]cnc4c3)c(=O)c2c1 (stereo not drawn) [Compound 262, 1-(1H-Benzoimidazol-5-yl)-3-hydroxy-5-(6-methyl-4-oxo-4H-chromen-3-yl)-4-phenyl-1,5-dihydro-pyrrol-2-one] | 850

The remaining lines, values ahead:

IC50 [nM] | Structure (SMILES)
4900 | CC(C)(C)C(=O)C1=C(O)C(=O)N(c2ccc3[nH]cnc3c2)C1c1cc(F)cc(F)c1F (stereo not drawn) [Compound 341, 1-(1H-Benzoimidazol-5-yl)-4-(2,2-dimethyl-propionyl)-3-hydroxy-5-(2,3,5-trifluoro-phenyl)-1,5-dihydro-pyrrol-2-one]
40 | CC(C)CC(=O)C1=C(O)C(=O)N(c2ccc3[nH]cnc3c2)C1c1c(F)c(F)cc(F)c1F (stereo not drawn) [Compound 423, 1-(1H-Benzoimidazol-5-yl)-3-hydroxy-4-(3-methyl-butyryl)-5-(2,3,5,6-tetrafluoro-phenyl)-1,5-dihydro-pyrrol-2-one]
4450 | CC(C)(C)C(=O)C1=C(O)C(=O)N(c2ccc3[nH]cnc3c2)C1c1cc(Br)ccc1F (stereo not drawn) [Compound 396, 1-(1H-Benzoimidazol-5-yl)-5-(5-bromo-2-fluoro-phenyl)-4-(2,2-dimethyl-propionyl)-3-hydroxy-1,5-dihydro-pyrrol-2-one]
5800 | O=C1C(O)=C(c2ccc(O)cc2)C(C2CCOC2)N1c1ccc2[nH]cnc2c1 (stereo not drawn) [Compound 279, 1-(1H-Benzoimidazol-5-yl)-3-hydroxy-4-(4-hydroxy-phenyl)-5-(tetrahydro-furan-3-yl)-1,5-dihydro-pyrrol-2-one]
3550 | O=C1C(O)=C(c2ccc(O)cc2)C(c2coc3ccccc3c2=O)N1c1ccc2[nH]cnc2c1 (stereo not drawn) [Compound 286, 1-(1H-Benzoimidazol-5-yl)-3-hydroxy-4-(4-hydroxy-phenyl)-5-(4-oxo-4H-chromen-3-yl)-1,5-dihydro-pyrrol-2-one]
7690 | Cc1ccc(O)c(C2C(c3c[nH]c4ccccc34)=C(O)C(=O)N2c2ccc3[nH]cnc3c2)c1 (stereo not drawn) [Compound 332, 1-(1H-Benzoimidazol-5-yl)-3-hydroxy-5-(2-hydroxy-5-methyl-phenyl)-4-(1H-indol-3-yl)-1,5-dihydro-pyrrol-2-one]
760 | CC(=O)C1=C(O)C(=O)N(c2ccc3[nH]cnc3c2)C1c1ccsc1 (stereo not drawn) [Compound 367, 4-Acetyl-1-(1H-benzoimidazol-5-yl)-3-hydroxy-5-thiophen-3-yl-1,5-dihydro-pyrrol-2-one]
7510 | O=C1C(O)=C(c2ccccc2)C(c2cccc3cccnc23)N1c1ccc2[nH]cnc2c1 (stereo not drawn) [Compound 267, 1-(1H-Benzoimidazol-5-yl)-3-hydroxy-4-phenyl-5-quinolin-8-yl-1,5-dihydro-pyrrol-2-one]
1390 | CC(=O)C1=C(O)C(=O)N(c2ccc3[nH]cnc3c2)C1c1ccc(C)o1 (stereo not drawn) [Compound 415, 4-Acetyl-1-(1H-benzoimidazol-5-yl)-3-hydroxy-5-(5-methyl-furan-2-yl)-1,5-dihydro-pyrrol-2-one]
4090 | O=C1C(O)=C(c2ccccc2)C(c2cc3ccccc3nc2Cl)N1c1ccc2[nH]cnc2c1 (stereo not drawn) [Compound 373, 1-(1H-Benzoimidazol-5-yl)-5-(2-chloro-quinolin-3-yl)-3-hydroxy-4-phenyl-1,5-dihydro-pyrrol-2-one]
40 | O=C1C(O)=C(c2c[nH]c3ccccc23)C(c2ccc3nonc3c2)N1c1ccc2[nH]cnc2c1 (stereo not drawn) [Compound 390, 1-(1H-Benzoimidazol-5-yl)-5-(benzo[c][1,2,5]oxadiazol-5-yl)-3-hydroxy-4-(1H-indol-3-yl)-1,5-dihydro-pyrrol-2-one]
